Patent US11767313B2, “Compounds as nuclear transport modulators and uses thereof” (XWPHARMA LTD., priority 2018, dated 2023)
Where two headings read alike, the source gives them in different places.

Tests used:
[1] = Pharmacokinetic profile in plasma; format: in vivo; details: P.O., mice
Experimental: Blood was collected from mice (n=3, or 5) to contribute to the total of 10 time points (pre-dose, 5 min, 15 min, 30 min, 1 hour, 2 hours, 4 hours, 8 hours, 12 hours and 24 hours). At the designated time points, animals were anaesthetized under isoflurane, and approximately 110 μL of blood per time point was collected via retro-orbital puncture into pre-cooled K2EDTA tubes. Blood samples were put on wet ice and centrifuged (2000 g, 5 min at 4° C.) to obtain plasma within 30 minutes of sample collection. All samples were stored frozen at approximately −80° C. until analysis. Prior to analysis, samples were mixed with internal standard in acetonitrile, vortexed, centrifuged, and supernatant was injected for analysis. Concentration of compounds in plasma was determined using LC-MS-MS instrumentation (API 4000, Triple Quadrupole LC/MS/MS Mass Spectrometer). AUC values were calculated using Phoenix Win Nonlin 6.3 software package, PO-Noncompartmental model 200 (extravascular input).

H460 = experiment: CellTiter-Glo cell proliferation assay, H460; format: cell-based; details: Homo sapiens, NCI-H460, 72 hours, Table 1, read-out: Growth inhibition (IC50)
Experimental: (§1) CellTiter-Glo® Luminescent Cell Viability assay (with Promega CellTiter 96® Luminescent CellTiter-Glo® kit) was used to study the proliferation inhibition by test compounds. Compounds were resuspended in DMSO to make a 25 mM stock suspension. Cells of cancer cell lines or normal tissues were seeded in 96-well plates at 1,500 to 5,000 cells/well overnight. Compounds were 2- or 3-fold diluted serially to obtain 10 concentrations. Then, the drugs were added to the cell wells by Bravo (Agilent) and incubated for 72 hours. The cells were lysed by adding CellTiter-Glo® Reagent (per manufacturer's instructions) and subsequently, the luminescence was read using EnVision® (PerkinElmer).
(§2) The percent of growth was calculated as follows. DMSO-treated cells were employed as vehicle control (High control, HC) and culture medium alone was employed as background (Low control, EC). % growth=100×(Lum sample−Lum EC)/(Lum HC−Lum EC). The ICso was calculated by concentration-response curve fitting using Graphpad Prism.
Hematological cancer cell lines tested included OCI-AML3, MV-4-11, KG-1, Kasumi-1, K562, THP-1; solid cancer cell lines tested included U87MG, U251, T98G, LN229, A172, H460, H2009, A549; normal cell lines tested included HCN2 and 3T3-L1. […] However, they were not toxic to in vitro cultured normal cells.

U87MG cells = experiment: Capase-Glo 317 apoptosis assay; format: cell-based; details: Homo sapiens, U-87 MG, 72 hours
Experimental: A Capase-Glo® 317 assay was used to determine the apoptosis activity of test compounds in U87MG cells.
Compounds were dissolved in 25 mM DMSO stock solution and serially diluted. DMSO was used as the vehicle control (high control, HC) and culture medium was used as the background (low control LC). The test compounds were applied to plates and spun at 25° C. at 1,000 RPM for 1 min and shaken on a plate shaker for 2 min. Samples (80 nL) of the compounds from the plates were transferred to 384-well cell culture plates using a liquid handler.
Cells were harvested and the cell numbers counted. 40 μL of the cell suspension with the adjusted density was added to 384-well cell culture pates. The final cell density is 1,000 cells/well. Cell culture medium only was used in the low control (LC) samples. The plates were covered with a lid and placed in a 5% CO2 incur at 37° C. for 72 hours.
After incubating for 72 hours, the plates were removed from the incubator and equilibrated at 25° C. for 15 minutes. CellTiter Glo® regen was incubated at 37° C. before the experiments. 40 μL of Capase-Glo® 317 was added into each well to be detected at a 1:1 ratio to culture medium. The plates were then placed at 25° C. for 30 min and read using an EnSpire® Plate Reader.
The % activity remaining was determined using the following formula: % Remaining Activity=[…]×(Lumsample−LumLC)/(LumHC−LUM LC), where HC is obtained from cells treated with 0.1% DMSO only, LC is obtained from culture medium only.

[2] = mouse, in vivo, po
A-172 = experiment: CellTiter-Glo cell viability assay, A-172; format: cell-based; details: Homo sapiens, Table 6
Experimental: as §1, §2
The inhibition activity of test compounds was determined in A-172, U87MG and 3T3-L1 cell lines.
A CellTiter-Glo® luminescent cell viability assay was performed s described in Example 1.

[3] = Pharmacokinetic profile in plasma; format: in vivo; details: mouse, iv, I. V., mice
Ki67 = experiment: PD effects by IHC in U87MG-luc orthotopic model, Ki67; format: in vivo, mice; details: orally three times a week for 2 weeks; vs vehicle control
Experimental: Based on the bioluminescent signal of tumor, mice were randomly assigned to respective groups using a computer-generated randomization procedure, which included vehicle and compound III-treated groups, respectively, with 5 animals per group. Compound III (20 mg/kg) was given orally 3 times a week (on Day 1, 3, 5) for 2 weeks. Animals for IHC study were euthanized at 6 hours after the last dose and perfused with normal saline followed by fixation with 4% paraformaldehyde. Entire brains containing tumors were collected and kept in fixative for 24 hours before proceeding for paraffin block.

XPO1 = XPO1 (Homo sapiens, UniProt O14980); experiment: Compound washout assay in REV-GFP cells; details: for XPO1 inhibition post washout: 400 nM (EC90); for effect on nuclear retention of REV: at EC50 (120 nM)
Experimental: In order to evaluate the duration of XPO1 inhibition by test compounds on XPO1 protein after washout, washout assay was performed using REV-GFP cells. The test compounds and positive control were added to the cell well, and the plate was incubated the at 37° C. and 5% CO2 for 1 h. The drug-containing media were removed, the cells were washed, and the fresh media were added. The cells were imagined at the specified time points 0, 4, 24, 48, 72, and 96 hours to evaluate the inhibition of REV nuclear export. […] 4A. […] 4B. […] 4C.

in vivo = details: female, mouse

Chain of XPO1 (O14980 whole entry): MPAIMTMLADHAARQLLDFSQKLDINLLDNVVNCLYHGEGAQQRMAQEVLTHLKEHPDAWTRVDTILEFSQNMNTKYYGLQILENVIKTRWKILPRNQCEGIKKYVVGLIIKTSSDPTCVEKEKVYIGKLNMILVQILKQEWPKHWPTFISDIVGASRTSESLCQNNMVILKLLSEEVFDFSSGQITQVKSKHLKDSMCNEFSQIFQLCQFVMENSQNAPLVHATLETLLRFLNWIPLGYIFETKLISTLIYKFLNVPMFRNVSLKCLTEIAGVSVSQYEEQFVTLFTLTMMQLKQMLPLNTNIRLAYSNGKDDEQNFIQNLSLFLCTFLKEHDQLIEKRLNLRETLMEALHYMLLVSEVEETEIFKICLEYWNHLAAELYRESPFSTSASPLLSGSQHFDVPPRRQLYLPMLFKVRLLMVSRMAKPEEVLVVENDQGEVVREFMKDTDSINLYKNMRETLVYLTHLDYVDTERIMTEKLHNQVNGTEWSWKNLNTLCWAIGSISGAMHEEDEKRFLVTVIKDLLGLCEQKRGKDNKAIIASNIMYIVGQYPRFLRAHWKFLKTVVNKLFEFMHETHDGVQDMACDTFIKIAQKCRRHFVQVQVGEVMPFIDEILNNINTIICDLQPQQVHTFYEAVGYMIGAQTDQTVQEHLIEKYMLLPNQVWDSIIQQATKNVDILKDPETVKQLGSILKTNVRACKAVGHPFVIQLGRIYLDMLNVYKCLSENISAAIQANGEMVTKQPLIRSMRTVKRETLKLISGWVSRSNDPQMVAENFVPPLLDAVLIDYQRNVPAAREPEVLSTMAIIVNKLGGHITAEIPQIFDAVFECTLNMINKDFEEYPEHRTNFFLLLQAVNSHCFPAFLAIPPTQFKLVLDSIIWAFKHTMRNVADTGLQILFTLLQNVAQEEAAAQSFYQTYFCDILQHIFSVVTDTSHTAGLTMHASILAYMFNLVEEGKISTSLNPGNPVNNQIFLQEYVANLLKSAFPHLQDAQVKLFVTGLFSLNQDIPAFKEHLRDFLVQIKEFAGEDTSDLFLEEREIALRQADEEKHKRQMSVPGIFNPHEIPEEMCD

O=C(/C=C\n1cnc(-c2cc(C(F)(F)F)cc(S(F)(F)(F)(F)F)c2)n1)NNc1cnccn1 [Compound I, (Z)-3-(3-(3-(pentafluorosulfanyl)-5-(trifluoromethyl)phenyl)-1H-1,2,4-triazol-1-yl)-N′-(pyrazin-2-yl)acrylohydrazide]
AUG0-inf [1]: 10430 ng·h/mL | Cmax ([1]; mouse, po): 2550 ng/mL | Tmax ([1]; mouse, po): 0.75 h | half-life ([1]; mouse, po): 4.72 h | MRT inf ([1]; mouse, po, read-out: MRT0-inf): 5.55 h | MRT last ([1]; mouse, po, read-out: MRT0-last): 4.51 h | IC50 (H460): 294 nM | EC50 (U87MG cells): 16000 nM | Emax (U87MG cells; U87MG): 325% | survival in MTD study [2]: survived | IC50 (A-172): 407 nM | AUC(0-t) [3]: 1040 ng·h/mL | C0 [3]: 1010 ng/mL | clearance [3]: 16 mL/min/kg | half-life [3]: 1.62 h | MRT last ([3]; read-out: MRT0-last): 1.56 h | Vd ([3]; read-out: Vdss): 1.68 L/kg

CC(C)(C)C(=O)NNC(=O)/C=C\n1cnc(-c2cc(C(F)(F)F)cc(S(F)(F)(F)(F)F)c2)n1 [Compound III, (Z)-3-(3-(3-(Pentafluorosulfanyl)-5-(trifluoromethyl)phenyl)-1H-1,2,4-triazol-1-yl)-N′-pivaloylacrylohydrazide]
expression of Ki67 in tumors (IHC) (Ki67): significantly decreased | XPO1 inhibition post washout (XPO1; 4 hours post washout): sustained XPO1 inhibition | XPO1 inhibition post washout (XPO1; by 24 hours post washout): gradually diminished | effect on nuclear retention of REV (XPO1; 4 hours post washout): 20% | effect on nuclear retention of REV (XPO1; 24 hours post washout): completely lost | effect on nuclear retention of REV (XPO1; following 1-hour treatment): about 40% | toxicity / cell number compared to the control (XPO1; washout assay): no decrease in the cell number was observed | MTD (in vivo): < 25 mg/kg
